The text below walks through data of paper PMC3145970, “Specific CLK Inhibitors from a Novel Chemotype for Regulation of Alternative Splicing” (Chemistry & Biology, 2011).

Read-outs that look alike come from different tables or passages of the source.

Holding throughout (assay): Thermal stability shift assay
Type in all cases: binding

One assay has as its target T1, ALK4 (Homo sapiens, UniProt P36896).
T1 sequence (P36896 24-505): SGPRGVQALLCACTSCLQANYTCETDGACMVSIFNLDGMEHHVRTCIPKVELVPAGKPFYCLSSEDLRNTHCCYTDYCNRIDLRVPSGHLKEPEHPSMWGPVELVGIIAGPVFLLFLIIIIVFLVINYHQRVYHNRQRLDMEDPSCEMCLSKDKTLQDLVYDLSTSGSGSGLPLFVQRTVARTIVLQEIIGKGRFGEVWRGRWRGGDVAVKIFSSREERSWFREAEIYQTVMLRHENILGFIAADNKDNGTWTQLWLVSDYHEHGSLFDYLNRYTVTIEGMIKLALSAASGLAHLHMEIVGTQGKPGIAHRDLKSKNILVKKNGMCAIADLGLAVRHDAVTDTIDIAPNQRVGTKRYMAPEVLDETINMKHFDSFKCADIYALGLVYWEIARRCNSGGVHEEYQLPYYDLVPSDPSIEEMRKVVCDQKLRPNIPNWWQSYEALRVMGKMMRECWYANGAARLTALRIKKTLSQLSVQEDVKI
The following applies: read-out: Tm shift ALK4. The method in brief:
(§1)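 Each value reflects thermal unfolding of 2 μM protein with 10 μM inhibitor, detected by SyproOrange (1:1000 dilution) fluorescence in 10 mM HEPES pH 7.5, 500 mM NaCl.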

The target of a further assay is T2, CaMK4 (Homo sapiens, UniProt Q16566).
T2 sequence (Q16566 1-473): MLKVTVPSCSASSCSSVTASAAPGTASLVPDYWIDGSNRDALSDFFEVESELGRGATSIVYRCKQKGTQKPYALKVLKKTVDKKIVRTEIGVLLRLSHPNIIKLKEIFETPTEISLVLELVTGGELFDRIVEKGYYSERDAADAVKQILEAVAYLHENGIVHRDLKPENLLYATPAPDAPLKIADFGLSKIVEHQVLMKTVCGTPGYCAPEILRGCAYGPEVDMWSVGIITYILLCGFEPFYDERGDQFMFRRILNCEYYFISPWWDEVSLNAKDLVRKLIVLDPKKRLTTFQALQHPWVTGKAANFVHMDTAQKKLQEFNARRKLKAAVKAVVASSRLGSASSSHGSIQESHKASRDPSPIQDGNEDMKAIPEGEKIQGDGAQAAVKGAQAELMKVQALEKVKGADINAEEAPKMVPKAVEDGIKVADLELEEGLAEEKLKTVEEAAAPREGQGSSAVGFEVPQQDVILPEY
The following applies: read-out: Tm shift CaMK4. The method in brief: as §1

In another assay the target is T3, LOK (Homo sapiens, UniProt O94804).
T3 construct: purchased in-house (SGC Oxford thermal shift panel)
Conditions: read-out: Tm shift LOK. The method in brief: as §1

For another assay, the target named is T4, RHOK (Homo sapiens, UniProt Q15835).
T4 sequence (Q15835 1-563): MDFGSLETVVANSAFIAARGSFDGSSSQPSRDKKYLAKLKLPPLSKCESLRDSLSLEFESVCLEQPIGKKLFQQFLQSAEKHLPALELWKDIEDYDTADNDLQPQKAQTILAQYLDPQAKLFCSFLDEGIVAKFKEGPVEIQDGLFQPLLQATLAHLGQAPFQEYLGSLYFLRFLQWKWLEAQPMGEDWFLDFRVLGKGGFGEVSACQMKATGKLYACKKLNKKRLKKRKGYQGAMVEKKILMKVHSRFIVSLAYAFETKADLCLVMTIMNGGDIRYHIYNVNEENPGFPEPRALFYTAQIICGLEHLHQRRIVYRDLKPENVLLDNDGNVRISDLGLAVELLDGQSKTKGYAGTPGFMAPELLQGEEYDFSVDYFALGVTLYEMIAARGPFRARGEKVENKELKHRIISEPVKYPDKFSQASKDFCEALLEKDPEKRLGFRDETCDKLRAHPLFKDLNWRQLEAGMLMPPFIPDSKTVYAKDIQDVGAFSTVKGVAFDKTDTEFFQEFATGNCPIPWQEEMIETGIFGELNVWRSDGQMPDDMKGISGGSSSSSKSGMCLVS
The following applies: read-out: Tm shift RHOK. The gist of the method: as §1

T3 sequence (O94804 whole entry): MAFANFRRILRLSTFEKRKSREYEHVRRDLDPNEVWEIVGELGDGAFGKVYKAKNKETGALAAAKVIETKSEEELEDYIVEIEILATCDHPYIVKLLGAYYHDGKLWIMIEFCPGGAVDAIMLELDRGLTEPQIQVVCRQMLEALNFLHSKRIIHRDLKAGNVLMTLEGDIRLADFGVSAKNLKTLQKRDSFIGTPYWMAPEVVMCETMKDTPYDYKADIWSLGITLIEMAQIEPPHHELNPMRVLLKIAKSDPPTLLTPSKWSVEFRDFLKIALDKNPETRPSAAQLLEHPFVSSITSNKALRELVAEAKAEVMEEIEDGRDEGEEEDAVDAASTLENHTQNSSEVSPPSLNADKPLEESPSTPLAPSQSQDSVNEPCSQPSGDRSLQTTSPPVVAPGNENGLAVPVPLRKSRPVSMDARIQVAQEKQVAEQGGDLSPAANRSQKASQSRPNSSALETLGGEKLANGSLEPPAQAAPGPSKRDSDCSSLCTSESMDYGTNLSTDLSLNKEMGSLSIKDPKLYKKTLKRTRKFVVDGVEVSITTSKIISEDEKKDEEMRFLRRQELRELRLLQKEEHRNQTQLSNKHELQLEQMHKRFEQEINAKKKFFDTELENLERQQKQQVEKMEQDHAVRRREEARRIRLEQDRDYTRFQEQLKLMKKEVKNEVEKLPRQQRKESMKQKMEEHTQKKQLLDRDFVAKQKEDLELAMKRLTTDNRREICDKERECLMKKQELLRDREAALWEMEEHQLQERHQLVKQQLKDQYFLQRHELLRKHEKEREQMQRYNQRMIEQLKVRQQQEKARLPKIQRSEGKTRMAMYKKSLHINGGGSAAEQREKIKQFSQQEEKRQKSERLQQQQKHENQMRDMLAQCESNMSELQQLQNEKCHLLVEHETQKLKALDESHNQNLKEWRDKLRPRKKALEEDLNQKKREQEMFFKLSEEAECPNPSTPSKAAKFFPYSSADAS

With `Cn1c2c(Cl)c(Cl)ccc2c2c(C#N)c[nH]c(=O)c21` [compound 3, 7,8-Dichloro-9-Methyl-1-Oxo-2,9-Dihydro-1H-Pyrido[3,4-b]Indole-4-Carbonitrile], the ΔTm at 10 µM is 0.9 °C at ALK4 (inhibitor 10 μM), 0.4 °C at CaMK4 (inhibitor 10 μM), -0.7 °C at LOK (inhibitor 10 μM) and 0.9 °C at RHOK (inhibitor 10 μM).
As to `CCOC(=O)c1c(C(C#N)=CN)c2ccc(Cl)c(Cl)c2n1C` (mixture of isomers) [KH-CB20, (E/Z)-Ethyl 3-(2-Amino-1-Cyanovinyl)-6,7-Dichloro-1-Methyl-1H-Indole-2-Carboxylate], the ΔTm at 10 µM is 1.4 °C on ALK4, -0.1 °C on CaMK4, 3 °C on LOK and 0.3 °C on RHOK.
For the compound `NC1=NC(=O)/C(=C2\CCNC(=O)c3[nH]c(Br)cc32)N1` [Hymenialdisine, hymenialdisine, reference compound], the ΔTm at 10 µM on ALK4 (inhibitor 10 μM) was found to be 4.9 °C; at CaMK4 (inhibitor 10 μM), 0.4 °C; at LOK (inhibitor 10 μM) it was 4.2 °C; at RHOK (inhibitor 10 μM) it was 0.7 °C.
In the case of `CCOC(=O)c1c(/C(C#N)=C\N)c2ccc(Cl)c(Cl)c2n1C` [KH-CB19, (E)-Ethyl 3-(2-Amino-1-Cyanovinyl)-6,7-Dichloro-1-Methyl-1H-Indole-2-Carboxylate], the ΔTm at 10 µM is 1.2 °C on ALK4, 0.8 °C at CaMK4, -0.8 °C on LOK and 0.5 °C at RHOK.
On to `CCOC(=O)c1c(C(C#N)=CN(C)C)c2ccc(Cl)c(Cl)c2n1C` (mixture of isomers) [compound 2, (E/Z)-Ethyl 6,7-Dichloro-3-[1-Cyano-2-(Dimethylamino)Vinyl]-1-Methyl-1H-Indole-2-Carboxylate], for which the ΔTm at 10 µM is 4 °C on ALK4 (inhibitor 10 μM), 0.2 °C at CaMK4 (inhibitor 10 μM), -1.1 °C on LOK (inhibitor 10 μM) and 0.9 °C at RHOK (inhibitor 10 μM).
